Data reported in patent US20190225650A1, “PEPTIDOMIMETIC MACROCYCLES AND USE THEREOF IN REGULATING HIF1ALPHA” (AILERON THERAPEUTICS, INC., priority 2013, published 2019).
Bridge positions count the residues as written; N and C are the ends. Square brackets hold non-standard residues; d marks the D form. Peptide text beside a SMILES is read from it. R8 = C=CCCCCCC[C@@](C)(N)C(=O)O; S5 = C=CCCC[C@](C)(N)C(=O)O; Nle = CCCC[C@H](N)C(=O)O

How the values were obtained:
HRE-bla ME-180 cells [1] = test: Reporter gene assay (HRE-bla ME-180 HIF reporter, GeneBLAzer); format: cell-based, human; conditions: for EC50: 24 hour normoxia
Outline: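 A FRET β-lactamase readout of HIF transcription was used. After compound treatment in 0.3% DMSO/media under normoxic conditions, 20 μl of 6× LiveBLAzer-FRET B/G (CCF4-AM) substrate was added. Plates sat 3 hr at room temperature in the dark and were read at 409 Ex/460Em and 409Ex/530Em on a Synergy 2. Inhibition was compared against DMSO vehicle controls, with chetomin as positive control.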

[2] = molecular target: T1, flag-tagged HIF1α (AA 786-826) / His6-tagged p300 (AA 323-423) complex (Homo sapiens, UniProt Q09472); test: HIF1α p300 displacement assay (TR FRET, +CHAPS); format: binding; conditions: read-out: IC50 (nM) (HIF1α_p300 Displacement + CHAPS)
T1 construct: His6-tagged p300 (AA 323-423); made in house; host or cells: E. coli (pETDuet vector)
Outline: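 In this TR-FRET displacement format, peptides compete HIF1α C-terminal transactivation domain off p300-CH. They were preincubated 1 h at room temperature with 300 nM complex in HEPES pH 7.4/NaCl buffer with 7.5 mM CHAPS and 1 mM DTT. Anti-His-D2 (4 nM) and anti-Flag-K (0.5 μM) followed for 2 h, and a one-site fit of the fluorescence ratio gave IC50.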

HRE-bla ME-180 cells [3] = test: Cell proliferation assay (viability, MTT, 1% FBS); format: cell-based, human
Outline: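 Viable cell number was measured with the CellTiter 96 (MTT) kit after compounds were applied for a 16 h normoxic (21% O2) pretreatment, followed by further normoxic or hypoxic (1% O2) culture. Cells: 2×10^4 ME-180 per well, Opti-MEM + 1% FBS, 0.5% DMSO vehicle.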

EC50 (HRE-bla ME-180 cells [1]) [µM] | IC50 [2] [nM] | Compound | 18 h Avg % max inhibition at top conc (HIF Rptr-24 hrs normoxia) (μM) (HRE-bla ME-180 cells [1]) | Viability 1% FBS AVG (MTT V3-24 hr Normoxia) (μM) (HRE-bla ME-180 cells [3])
> 30 | 400 to 700 | CCCC[C@H](NC(=O)[C@H](CCC(=O)O)NC(=O)[C@@H](NC(=O)[C@@H](NC(=O)[C@H](C)NC(=O)[C@]1(C)CCCC=CCCC[C@](C)(NC(=O)[C@H](CCC(=O)O)NC(=O)[C@H](CC(=O)O)NC(=O)[C@@H](NC(=O)[C@H](Cc2ccccc2)NC(C)=O)[C@@H](C)CC)C(=O)N[C@@H](C(C)C)C(=O)N[C@@H](CC(C)C)C(=O)N[C@@H](CCCC)C(=O)N1)C(C)C)[C@@H](C)CC)C(=O)N[C@@H](C)C(=O)N[C@@H](CC(C)C)C(N)=O [SP-142] (Ac-FIDE[S5]VL[Nle][S5]AVIE[Nle]AL-NH2; staple 5-9) | +++ (≤25 but <50: +++) | ++++ (≥30: ++++)
≤ 5 | > 700 | CCCC[C@H](NC(=O)[C@H](Cc1ccccc1)NC(=O)[C@@H](NC(=O)[C@H](CCC(=O)O)NC(=O)[C@H](CCC(=O)O)NC(=O)[C@H](CC(=O)O)NC(C)=O)C(C)C)C(=O)N[C@@]1(C)CCCC=CCCC[C@@](C)(C(=O)N[C@@H](CCCC)C(=O)N[C@@H](C)C(=O)N[C@@H](CC(C)C)C(=O)N[C@@H](CC(C)C)C(N)=O)NC(=O)[C@H]([C@@H](C)CC)NC(=O)[C@H](C(C)C)NC(=O)[C@H](CC(C)C)NC1=O [SP-244] (Ac-DEEVF[Nle][S5]LVI[S5][Nle]ALL-NH2; staple 7-11) | ++++ (≥50: ++++) | ++++ (≥30: ++++)
 | 200 to 400 | CCCC[C@@H]1NC(=O)[C@H](CC(C)C)NC(=O)[C@H](C(C)C)NC(=O)[C@@](C)(NC(=O)[C@H](CCC(=O)O)NC(=O)[C@H](CC(=O)O)NC(=O)[C@@H](NC(=O)[C@H](Cc2ccccc2)NC(C)=O)[C@@H](C)CC)CCCC=CCCC[C@@](C)(C(=O)N[C@@H](CC(C)C)C(=O)N[C@H](C(=O)N[C@H](C(=O)N[C@@H](CCC(=O)O)C(=O)N[C@@H](C)C(=O)N[C@@H](C)C(=O)N[C@@H](CC(C)C)C(N)=O)[C@@H](C)CC)C(C)C)NC1=O [SP-145] (Ac-FIDE[S5]VL[Nle][S5]LVIEAAL-NH2; staple 5-9) |  | ++++ (≥30: ++++)
 | 200 to 400 | CC[C@H](C)[C@H](NC(=O)[C@H](CCCNC(=N)N)NC(=O)[C@H](CC(=O)O)NC(=O)[C@H](CC(C)C)NC(=O)[C@H](C)NC(=O)[C@H](CCSC)NC(=O)[C@]1(C)CCCC=CCCC[C@](C)(NC(=O)[C@H](CCSC)NC(=O)[C@H](CC(C)C)NC(=O)[C@@H](NC(=O)[C@H](C)NC(=O)[C@H](CCC(=O)O)NC(=O)[C@H](CC(=O)O)NC(=O)[C@@H](NC(=O)[C@H](Cc2ccccc2)NC(C)=O)[C@@H](C)CC)C(C)C)C(=O)N[C@@H](CC(C)C)C(=O)N[C@@H](C(C)C)C(=O)N[C@@H]([C@@H](C)CC)C(=O)N1)C(N)=O [SP-266] (Ac-FIDEAVLM[S5]LVI[S5]MALDRI-NH2; staple 9-13) |  | ++++ (≥30: ++++)
> 30 |  | CCCC[C@H](NC(=O)[C@H](Cc1ccccc1)NC(=O)[C@@H](NC(=O)[C@H](C)NC(=O)[C@H](CCC(N)=O)NC(=O)[C@H](CC(=O)O)NC(=O)[C@@H](NC(=O)[C@H](Cc1ccccc1)NC(C)=O)[C@@H](C)CC)C(C)C)C(=O)N[C@@]1(C)CCCC=CCCC[C@@](C)(C(=O)N[C@@H](CCCC)C(=O)N[C@@H](C)C(=O)N[C@@H](CC(C)C)C(=O)N[C@@H](CC(C)C)C(N)=O)NC(=O)[C@H]([C@@H](C)CC)NC(=O)[C@H](C(C)C)NC(=O)[C@H](CC(C)C)NC1=O [SP-250] (Ac-FIDQAVF[Nle][S5]LVI[S5][Nle]ALL-NH2; staple 9-13) | + (<10: +) | ++++ (≥30: ++++)
> 30 |  | CC[C@H](C)[C@H](NC(=O)[C@H](CCCNC(=N)N)NC(=O)[C@H](CC(=O)O)NC(=O)[C@H](CC(C)C)NC(=O)[C@H](C)NC(=O)[C@H](CCSC)NC(=O)[C@H](CCC(=O)O)NC(=O)[C@]1(C)CCCC=CCCCCCC[C@@](C)(NC(=O)[C@H](CCC(=O)O)NC(=O)[C@H](CC(=O)O)NC(=O)[C@@H](NC(=O)[C@H](Cc2ccccc2)NC(C)=O)[C@@H](C)CC)C(=O)N[C@@H](C(C)C)C(=O)N[C@@H](CC(C)C)C(=O)N[C@@H](CCSC)C(=O)N[C@@H](CO)C(=O)N[C@@H](CC(C)C)C(=O)N[C@@H](C(C)C)C(=O)N1)C(N)=O [SP-175] (Ac-FIDE[R8]VLMSLV[S5]EMALDRI-NH2; staple 5-12) | ++ (≤10 but <25: ++) | ++++ (≥30: ++++)
 | > 700 | CCCC[C@H](NC(=O)[C@H](CCC(=O)O)NC(=O)[C@@H](NC(=O)[C@@H](NC(=O)[C@H](CC(C)C)NC(=O)[C@]1(C)CCCC=CCCC[C@](C)(NC(=O)[C@H](CCC(=O)O)NC(=O)[C@H](CC(=O)O)NC(=O)[C@@H](NC(=O)[C@H](CC(N)=O)NC(=O)[C@@H](NC(=O)[C@H](CCC(N)=O)NC(=O)[C@H](CC(=O)O)NC(=O)[C@H](CC(C)C)NC(=O)[C@]2(C)CCCC=CCCC[C@](C)(NC(=O)[C@H](CCC(=O)O)NC(=O)CNC(=O)[C@H](CCC(N)=O)NC(=O)[C@H](CC(C)C)NC(=O)[C@H](CC(C)C)NC(C)=O)C(=O)N[C@@H](CC(C)C)C(=O)N[C@@H](CC(C)C)C(=O)N[C@@H](CCCNC(=N)N)C(=O)N2)C(C)C)[C@@H](C)CC)C(=O)N[C@@H](C(C)C)C(=O)N[C@@H](CC(C)C)C(=O)N[C@@H](CCCC)C(=O)N1)C(C)C)[C@@H](C)CC)C(=O)NCC(N)=O [SP-326] (Ac-LLQGE[S5]LLR[S5]LDQVNIDE[S5]VL[Nle][S5]LVIE[Nle]G-NH2; staple 6-10, 19-23) |  | ++++ (≥30: ++++)
 | 400 to 700 | CC[C@H](C)[C@H](NC(=O)[C@H](Cc1ccccc1)NC(C)=O)C(=O)N[C@@H](CC(=O)O)C(=O)N[C@@H](CCC(=O)O)C(=O)N[C@@H](CCC(=O)O)C(=O)N[C@H](C(=O)N[C@@H](CC(C)C)C(=O)N[C@@H](CCSC)C(=O)N[C@@]1(C)CCCC=CCCC[C@@](C)(C(=O)N[C@@H](CCSC)C(=O)N[C@@H](C)C(=O)N[C@@H](CC(C)C)C(N)=O)NC(=O)[C@H]([C@@H](C)CC)NC(=O)[C@H](C(C)C)NC(=O)[C@H](CC(C)C)NC1=O)C(C)C [SP-7] (Ac-FIDEEVLM[S5]LVI[S5]MAL-NH2; staple 9-13) |  | ++++ (≥30: ++++)
> 30 |  | CCCC[C@H](NC(=O)[C@H](CCC(=O)O)NC(=O)[C@@H](NC(=O)[C@@H](NC(=O)[C@H](CC(C)C)NC(=O)[C@]1(C)CCCC=CCCC[C@](C)(NC(=O)[C@H](CCC(=O)O)NC(=O)[C@H](CC(=O)O)NC(=O)[C@@H](NC(=O)[C@H](CC(N)=O)NC(=O)[C@@H](NC(=O)[C@H](CCC(N)=O)NC(=O)[C@]2(C)CCCC=CCCC[C@](C)(NC(=O)[C@H](CC(C)C)NC(=O)[C@H](CCC(=O)O)NC(=O)[C@H](CCC(=O)O)NC(=O)CNC(=O)[C@H](CCC(N)=O)NC(=O)[C@H](CC(C)C)NC(=O)[C@H](CC(C)C)NC(C)=O)C(=O)N[C@@H](CCCNC(=N)N)C(=O)N[C@@H](C)C(=O)N[C@@H](CC(C)C)C(=O)N2)C(C)C)[C@@H](C)CC)C(=O)N[C@@H](C(C)C)C(=O)N[C@@H](CC(C)C)C(=O)N[C@@H](CCCC)C(=O)N1)C(C)C)[C@@H](C)CC)C(=O)NCC(N)=O [SP-327] (Ac-LLQGEEL[S5]RAL[S5]QVNIDE[S5]VL[Nle][S5]LVIE[Nle]G-NH2; staple 8-12, 19-23) | + (<10: +) | ++++ (≥30: ++++)
> 30 |  | CC[C@H](C)[C@H](NC(=O)[C@H](CCCNC(=N)N)NC(=O)[C@H](CC(=O)O)NC(=O)[C@H](CC(C)C)NC(=O)[C@H](C)NC(=O)[C@H](CCSC)NC(=O)[C@]1(C)CCCC=CCCC[C@](C)(NC(=O)[C@H](CCSC)NC(=O)[C@H](Cc2ccccc2)NC(=O)[C@@H](NC(=O)[C@H](CCC(=O)O)NC(=O)[C@H](CCC(N)=O)NC(=O)[C@H](CC(=O)O)NC(=O)[C@@H](NC(=O)[C@H](Cc2ccccc2)NC(C)=O)[C@@H](C)CC)C(C)C)C(=O)N[C@@H](CC(C)C)C(=O)N[C@@H](C(C)C)C(=O)N[C@@H]([C@@H](C)CC)C(=O)N1)C(N)=O [SP-267] (Ac-FIDQEVFM[S5]LVI[S5]MALDRI-NH2; staple 9-13) | +++ (≤25 but <50: +++) | ++++ (≥30: ++++)

Compound | EC50 (HRE-bla ME-180 cells [1]) [µM] | IC50 [2] [nM] | 18 h Avg % max inhibition at top conc (HIF Rptr-24 hrs normoxia) (μM) (HRE-bla ME-180 cells [1]) | Viability 1% FBS AVG (MTT V3-24 hr Normoxia) (μM) (HRE-bla ME-180 cells [3])
CCCC[C@H](NC(=O)[C@H](C)NC(=O)[C@@H](NC(=O)[C@@H](NC(=O)[C@H](CC(C)C)NC(=O)[C@]1(C)CCCC=CCCC[C@](C)(NC(=O)[C@H](CCC(=O)O)NC(=O)[C@H](CC(=O)O)NC(=O)[C@@H](NC(=O)[C@H](Cc2ccccc2)NC(C)=O)[C@@H](C)CC)C(=O)N[C@@H](C(C)C)C(=O)N[C@@H](CC(C)C)C(=O)N[C@@H](CCCC)C(=O)N1)C(C)C)[C@@H](C)CC)C(=O)N[C@@H](C)C(=O)N[C@@H](CC(C)C)C(=O)N[C@@H](CO)C(=O)N[C@@H](CO)C(=O)N[C@H](C(N)=O)[C@@H](C)CC [SP-129] (Ac-FIDE[S5]VL[Nle][S5]LVIA[Nle]ALSSI-NH2; staple 5-9) | > 30 |  | ++ (≤10 but <25: ++) | ++++ (≥30: ++++)
